According to US7244727B2, “Fused bicyclic nitrogen-containing heterocycles” (Japan Tobacco Inc., priority 2002, dated 2007):

Legend:
[1] = target: T1, human DGAT1 (Homo sapiens, UniProt O75907); experiment: DGAT Scintillation Proximity Assay (SPA) with membranes of insect cells expressing human flagtag DGAT1; type: biochemical; conditions: read-out: hDGAT1 IC50
T1 construct: made in house; host or cells: insect cells (sf9, sf21 or High Five) infected with baculovirus; total cell membranes
T1 sequence (O75907 1-488): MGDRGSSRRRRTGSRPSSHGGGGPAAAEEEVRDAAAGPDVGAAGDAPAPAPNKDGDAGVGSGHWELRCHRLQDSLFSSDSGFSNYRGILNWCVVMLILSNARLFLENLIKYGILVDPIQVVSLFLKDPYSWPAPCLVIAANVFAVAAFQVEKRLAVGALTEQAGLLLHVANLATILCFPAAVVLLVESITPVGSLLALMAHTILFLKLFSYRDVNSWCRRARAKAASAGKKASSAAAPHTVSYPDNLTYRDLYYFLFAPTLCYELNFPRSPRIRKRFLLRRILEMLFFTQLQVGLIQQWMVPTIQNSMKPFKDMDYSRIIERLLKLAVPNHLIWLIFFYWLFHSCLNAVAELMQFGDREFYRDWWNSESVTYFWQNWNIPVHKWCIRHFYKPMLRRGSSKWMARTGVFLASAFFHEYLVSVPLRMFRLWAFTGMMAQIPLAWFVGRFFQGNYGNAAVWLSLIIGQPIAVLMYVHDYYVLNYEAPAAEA
Experimental: In such an assay human DGAT1 is cloned from a human liver cDNA library. PCR is used to add a restriction site and flag epitope at the most 5′ end and a restriction site at the 3′ end of the sequence. Thereafter, human flagtag (FT) DGAT1 baculovirus may be generated using a Bac-to-Bac Baculovirus Expression System® (Invitrogen). Insect cells (e.g., sf9, sf2 1, or High Five) are infected for 24 to 72 h and collected by centrifugation. Cell pellets are resuspended in homogenization buffer and lysed using a homogenization device, such as a Microfluidizer. Total cell membranes are collected by ultracentrifugation at 45,000 rpm for 1 h.
A small aliquot (0.2 μg/well) of membrane is incubated with 10 μM compound or mercuric chloride (as positive control for inhibition) in the presence of enzyme substrate, dioleoyl glycerol (200 μM) in 384 well plates, final volume 50 gL per well. […] The reaction is stopped by adding Wheat Germ Agglutinin (WGA) SPA beads (0.2 mg) in mercuric chloride. Cell membranes are allowed to couple to the beads overnight. The signal can be measured using, for example, a Chemiluminescence Image Plate Reader (CLIPR) or TopCount device.

Row | Compound | IC50 [1] [nM] | melting point
1 | Nc1ncnc2c1N=C(c1ccc(C3CCCCC3)cc1)CO2 [Example 1-25] | > 100 | 219 to 221 °C
2 | Nc1nc(N)c2c(n1)OCC(c1ccc(Br)cc1)=N2 [Example 1-26] | > 100 | > 220 °C
3 | Nc1ncnc2c1N=C(c1ccc(Cl)c(Cl)c1)CO2 [Example 1-27] | > 100 | > 220 °C
4 | Nc1ncnc2c1N=C(c1ccc(Cl)cc1Cl)CO2 [Example 1-28] | > 100 | 218 to 220 °C
5 | Nc1nc(O)nc2c1N=C(c1ccc(Br)cc1)CO2 [Example 1-29] | > 100 | > 220 °C
6 | CN(C)c1nc(N)c2c(n1)OCC(c1ccc(Br)cc1)=N2 [Example 1-30] | > 100 | > 220 °C
7 | Nc1ncnc2c1N=C(c1c(F)c(F)c(F)c(F)c1F)CO2 [Example 1-31] | > 100 | 190 to 192 °C
8 | Cc1nc(N)c2c(n1)OCC(c1ccc(Br)cc1)N2 (centres unmarked) [Example 1-34] | > 100 | 232 to 233 °C
9 | O=c1[nH]c2ncnc3c2n1C(c1ccc(Br)cc1)CO3 (centres unmarked) [Example 1-35] | > 100 | > 220 °C
10 | Nc1ncnc2c1NC(c1ccc(Cl)c(Cl)c1)CO2 (centres unmarked) [Example 1-36] | > 100 | 198 to 200 °C
11 | Nc1ncnc2c1NC(c1ccc(Cl)cc1Cl)CO2 (centres unmarked) [Example 1-37] | > 100 | > 220 °C
12 | CC1(C)Oc2ncnc(N)c2NC1c1ccccc1 (centres unmarked) [Example 2-8] | > 100 | > 220 °C
13 | CC1(C)Oc2ncnc3[nH]c(=O)n(c23)C1c1ccc(Br)cc1 (centres unmarked) [Example 2-11] | > 100 | > 220 °C
14 | Nc1ncnc2c1N=C(c1ccc(Br)cc1)C1(CCCC1)O2 [Example 2-13] | > 100 | 184 to 186 °C
15 | Nc1ncnc2c1NC(c1ccc(Br)cc1)C1(CCCC1)O2 (centres unmarked) [Example 2-14] | > 100 | 226 to 233 °C
16 | CC1(C)Oc2ncnc(N)c2NC1c1ccc(Cl)cc1 (centres unmarked) [Example 2-19] | > 100 | > 230 °C

Row | Compound | IC50 [1] [nM] | melting point
17 | Cc1ccc(C2Nc3c(N)ncnc3OC2(C)C)cc1 (centres unmarked) [Example 2-20] | > 100 | > 230 °C
18 | CC1(C)Oc2ncnc(N)c2NC1c1ccc(F)cc1 (centres unmarked) [Example 2-21] | > 100 | > 230 °C
19 | CC1(C)Oc2ncnc(N)c2NC1c1ccc(C2CCCCC2)cc1 (centres unmarked) [Example 2-22] | > 100 | > 230 °C
20 | COc1ccc(C2Nc3c(N)ncnc3OC2(C)C)cc1 (centres unmarked) [Example 2-24] | > 100 | 225 to 226 °C
21 | CC1(C)Oc2ncnc(N)c2N=C1c1ccc(-c2ccncc2)cc1 [Example 2-28] | > 100 | > 250 °C
22 | CC1(C)Oc2ncnc(N)c2N=C1c1ccc(-c2cccnc2)cc1 [Example 2-29] | > 100 | 231 to 232 °C
23 | CN(C)c1ccc(-c2ccc(C3=Nc4c(N)ncnc4OC3(C)C)cc2)cc1 [Example 2-30] | > 100 | 210 to 211 °C
24 | CC1(C)Oc2ncnc(N)c2N=C1c1ccc(OC2CCCCC2)cc1 [Example 2-32] | > 100 | 174 to 175 °C
25 | CCOc1ccc(C2=Nc3c(N)ncnc3OC2(C)C)cc1 [Example 2-38] | > 100 | 189 to 190 °C
26 | CCOC(=O)C=C1CCC(c2ccc(C3=Nc4c(N)ncnc4OC3(C)C)cc2)CC1 (centres unmarked) [Example 2-39] | > 100 | 207 to 208 °C
27 | CC1CCC(c2ccc(C3=Nc4c(N)ncnc4OC3(C)C)cc2)CC1 (centres unmarked) [Example 2-41] | > 100 | 201 to 209 °C
28 | CC1(C)Oc2ncnc(N)c2N=C1c1ccc2c(c1)CCCC2 [Example 2-66] | > 100 | 176 to 177 °C
29 | CC1(C)Oc2ncnc(N)c2N=C1c1ccc2c(c1)C(CC(=O)O)CCC2 (centres unmarked) [Example 2-68] | > 100 | > 250 °C
30 | CC1(C)Oc2ncnc(N)c2N=C1c1ccc2c(c1)CC(C(=O)O)C2 (centres unmarked) [Example 2-71] | > 100 | > 250 °C
31 | CC1(C)Oc2ncnc(N)c2NC1(C)c1ccc(C2CCCCC2)cc1 (centres unmarked) [Example 2-75] | > 100 | 244 to 245 °C

Results, then the molecule that gave them:

Row | IC50 [1] [nM] | melting point | Compound
32 | 10 to 100 | 244 to 246 °C | CC1(C)Oc2ncnc(N)c2N=C1c1ccc([C@H]2CC[C@H](CCC(N)=O)CC2)cc1 [Example 2-5]
33 | 10 to 100 | > 250 °C | CC1(C)Oc2ncnc(N)c2NC1c1ccc([C@H]2CC[C@H](CCC(=O)O)CC2)cc1 (some centres unmarked) [Example 2-6]
34 | 10 to 100 | 226 to 227 °C | Cc1nc(N)c2c(n1)OC(C)(C)C(c1ccc(C3CCCCC3)cc1)=N2 [Example 2-26]
35 | < 10 | > 250 °C | CC1(C)Oc2ncnc(N)c2N=C1c1ccc(C2CCC(=CC(=O)O)CC2)cc1 (centres unmarked) [Example 2-40]
36 | 10 to 100 | 142 to 144 °C | CC1(C)Oc2ncnc(N)c2N=C1c1ccc(C2CCC(=CC(=O)NCc3ccccc3)CC2)cc1 (centres unmarked) [Example 2-45]
37 | 10 to 100 | 229 to 230 °C | CCNC(=O)C=C1CCC(c2ccc(C3=Nc4c(N)ncnc4OC3(C)C)cc2)CC1 (centres unmarked) [Example 2-47]
38 | 10 to 100 | 212 to 215 °C | CC(C)(C)OC(=O)CNC(=O)C=C1CCC(c2ccc(C3=Nc4c(N)ncnc4OC3(C)C)cc2)CC1 (centres unmarked) [Example 2-52]
39 | 10 to 100 | 267 °C (dec.) | CC1(C)Oc2ncnc(N)c2NC1c1ccc(-c2ccc(CC(=O)O)cc2)cc1 (centres unmarked) [Example 2-54]
40 | 10 to 100 | 251 to 252 °C | CC1(C)Oc2ncnc(N)c2N=C1c1ccc([C@H]2CC[C@H](CNS(C)(=O)=O)CC2)cc1 [Example 2-58]
41 | 10 to 100 | > 250 °C | CC1(C)Oc2ncnc(N)c2N=C1c1ccc([C@H]2CC[C@H](Cc3cc(O)[nH]n3)CC2)cc1 [Example 2-59]
42 | 10 to 100 | 173 to 175 °C | CC1(C)Oc2ncnc(N)c2N=C1c1ccc([C@H]2CC[C@H](Cc3cc(O)on3)CC2)cc1 [Example 2-60]
43 | 10 to 100 | 159 to 162 °C | CC1(C)Oc2ncnc(N)c2N=C1c1ccc([C@H]2CC[C@H](CNC(=O)OCc3ccccc3)CC2)cc1 [Example 2-61]
44 | 10 to 100 | > 230 °C | CC1(C)Oc2ncnc(N)c2N=C1c1ccc([C@H]2CC[C@H](OCC(=O)O)CC2)cc1 [Example 2-62]
45 | 10 to 100 | > 230 °C | CC1(C)Oc2ncnc(N)c2N=C1c1ccc([C@H]2CC[C@H](CC3SC(=O)NC3=O)CC2)cc1 (some centres unmarked) [Example 2-64]
46 | < 10 | 243 to 244 °C | CC(C)(NC(=O)C[C@H]1CC[C@H](c2ccc(C3=Nc4c(N)ncnc4OC3(C)C)cc2)CC1)C(=O)O [Example 2-65]
47 | 10 to 100 | > 250 °C | CC1(C)Oc2ncnc(N)c2N=C1c1ccc(C2(C)CCC(CC(=O)O)CC2)cc1 (centres unmarked) [Example 2-67]
48 | < 10 | > 250 °C | CC(C(=O)O)[C@H]1CC[C@H](c2ccc(C3=Nc4c(N)ncnc4OC3(C)C)cc2)CC1 (some centres unmarked) [Example 2-69]
49 | 10 to 100 | 212 to 214 °C | CC1(C)Oc2ncnc(N)c2N=C1c1ccc([C@H]2CC[C@H](CN3CC(=O)NC3=O)CC2)cc1 [Example 2-70]
50 | 10 to 100 | > 250 °C | CC1(C)Oc2ncnc(N)c2N=C1c1ccc2c(c1)CC(CC(=O)O)C2 (centres unmarked) [Example 2-72]
51 | 10 to 100 | > 250 °C | CC(C)(NC(=O)C[C@H]1CC[C@H](c2ccc(C3Nc4c(N)ncnc4OC3(C)C)cc2)CC1)C(=O)O (some centres unmarked) [Example 2-73]
52 | 10 to 100 | > 250 °C | CC1(C)Oc2ncnc(N)c2NC1c1ccc([C@H]2CC[C@H](Cc3nn[nH]n3)CC2)cc1 (some centres unmarked) [Example 2-76]
53 | 10 to 100 | 137 to 139 °C | CC1(C)Oc2ncnc(N)c2N=C1c1ccc([C@H]2CC[C@H](CC(=O)N3CCC(O)CC3)CC2)cc1 [Example 2-77]
54 | 10 to 100 | 185 to 187 °C | CC(C)(O)C[C@H]1CC[C@H](c2ccc(C3=Nc4c(N)ncnc4OC3(C)C)cc2)CC1 [Example 2-78]
55 | 10 to 100 | 207 to 208 °C | CC1(C)Oc2ncnc(N)c2N=C1c1ccc([C@H]2CC[C@H](CCO)CC2)cc1 [Example 2-79]
